# Assay results: patent publication US4382765A, “Method of moisturizing the skin with carbamide acid esters” (Henkel Kommanditgesellschaft auf Aktien, priority 1977, dated 1983)
# Experiments:
# [1] = Determination of the equilibrium dampness; format: physicochemical; conditions: 24 hours at 23° C.; relative humidity at which neither expulsion nor retention of water is effected; lower is better
# Excerpt: (§1) The favorable action of the compounds, which are to be used in accordance with the invention, with respect to their capacity for the absorption and retention of water, was established by means of the test methods described hereinafter. A process for determining the equilibrium dampness which is indicative of the water retention capacity, and the determination of the water retention, rehydration and elasticity of impregnated pig epidermis are described in these tests.
# The substances (approximately 300 to 500 mg) to be tested were moistened with a defined quantity of water and were exposed for 24 hours at 23° C. to various relative atmospheric humidities (1%, 30%, 47%, 65%, 89% and 100% relative humidity). The quantity of water absorbed or desorbed was determined gravimetrically and plotted on a graph. The relative humidity at which neither expulsion nor retention of water is effected can be determined from the resultant curves. This value, which is designated as the "equilibrium dampness", is a measure of the water retention capacity of a substance. The lower the value, the more positive is the assessment of the product. Furthermore, the hygroscopicity of the substance can be read from the slope of the curve.
# pig epidermis [2] = assay: Water retention of impregnated pig epidermis; conditions: 24 hours, 23° C., soaked 2 h in 10% solution, improvement vs blank value (water only)
# Excerpt: as §1
# (§2) Immediately after the pigs have been killed, the skin bristles are cut off by means of a shearing machine (shearing head 0.1 mm). The pigs are soaked for approximately 3 to 5 minutes in warm water of 60° C., the epidermis is subsequently peeled off and stored at -20° C. until it is used.
# (§3) Stamped out pieces of epidermis (1×2 cm) were soaked for two hours in a 10% solution of the test substance. Excess moisture was then removed under standardized conditions by means of a small press, and the pieces were dried for 24 hours, hanging freely between 2 clamps in a 100 ml Erlenmeyer flask at 23° C., both at 30% relative humidity and 50% relative humidity (set by mixtures of sulfuric acid and water). The drying out of the impregnated test pieces to X% of the initial weight was compared with the corresponding value of the epidermis which had been soaked only in water (blank value). In Table I, the improvement in the water retention and in the rehydration as compared with the blank value is given in Δ% H2 O. The deviations in each double test amounted to a maximum of ±2 absolute units. The test was repeated if greater deviations occurred. The rehydration was determined analogously by drying the pig epidermis, which had been impregnated and from which the excess moisture had been removed, for 24 hours at 30% relative humidity, and by subsequent incubation for 24 hours at 90% relative humidity.
# pig epidermis [3] = assay: Rehydration of impregnated pig epidermis; conditions: dried 24 h at 30% r.h., then incubated 24 h at 90% r.h.; 10% solution; improvement vs blank value
# Excerpt: as §1, §2, §3
# pig epidermis [4] = assay: Elasticity measurements made on the impregnated pig epidermis; conditions: 24 hours, soaked 2 h in 10% aqueous solution; for mm stretch with between 5 and 30 pound loading at 75% r.h.: blank value 0; for mm stretch with between 5 and 30 pound loading at 90% r.h.: blank value 0.3-0.5
# Protocol: A process for determining the equilibrium dampness which is indicative of the water retention capacity, and the determination of the water retention, rehydration and elasticity of impregnated pig epidermis are described in these tests.
# as §2
# Stamped out pieces of pig epidermis (1×6 cm) were soaked for two hours in a 10% aqueous solution of the substance which was to be tested, and excess moisture was removed from these pieces under standarized conditions. […] The amount of stretch in mm, measured in the Hooke range at a load between 5 to 30 pund, was determined as a measure of the elasticity.
smiles,measurement,setting,value
"CC1(C)COC(=O)N1 [Product F, 4,4-Dimethyl-oxazolidine-2-one]",Equilibrium dampness,[1],83 % r.h.
same,"Water Retention, % H2O after drying out at 30% r.h.",pig epidermis [2],5 Δ% H2O
same,"Water Retention, % H2O after drying out at 50% r.h.",pig epidermis [2],7 Δ% H2O
same,"Rehydration, Δ% water absorption at 90% r.h.",pig epidermis [3],5 Δ% H2O
same,mm stretch with between 5 and 30 pound loading at 75% r.h.,pig epidermis [4],0.4 mm
same,mm stretch with between 5 and 30 pound loading at 90% r.h.,pig epidermis [4],7.4 mm
"O=C1OCCN1CCO [Product I, N-(2-hydroxyethyl)-oxazolidine-2-one]",Equilibrium dampness,[1],68 % r.h.
same,"Water Retention, % H2O after drying out at 30% r.h.",pig epidermis [2],10 Δ% H2O
same,"Water Retention, % H2O after drying out at 50% r.h.",pig epidermis [2],16 Δ% H2O
same,"Rehydration, Δ% water absorption at 90% r.h.",pig epidermis [3],16 Δ% H2O
same,mm stretch with between 5 and 30 pound loading at 75% r.h.,pig epidermis [4],0.8 mm
same,mm stretch with between 5 and 30 pound loading at 90% r.h.,pig epidermis [4],6.0 mm
"O=C1NC(CO)(CO)CO1 [Product H, 4,4-bis-hydroxymethyl-oxazolidine-2-one]",Equilibrium dampness,[1],76 % r.h.
same,"Water Retention, % H2O after drying out at 30% r.h.",pig epidermis [2],12 Δ% H2O
same,"Water Retention, % H2O after drying out at 50% r.h.",pig epidermis [2],15 Δ% H2O
same,"Rehydration, Δ% water absorption at 90% r.h.",pig epidermis [3],10 Δ% H2O
same,mm stretch with between 5 and 30 pound loading at 75% r.h.,pig epidermis [4],0.5 mm
same,mm stretch with between 5 and 30 pound loading at 90% r.h.,pig epidermis [4],2.6 mm
"CC(O)CNC(=O)OCCO (stereo not drawn) [Product B, N-(2-hydroxypropyl)-carbamide acid-2-hydroxyethyl ester]",Equilibrium dampness,[1],58 % r.h.
same,"Water Retention, % H2O after drying out at 30% r.h.",pig epidermis [2],23 Δ% H2O
same,"Water Retention, % H2O after drying out at 50% r.h.",pig epidermis [2],22 Δ% H2O
same,"Rehydration, Δ% water absorption at 90% r.h.",pig epidermis [3],70 Δ% H2O
same,mm stretch with between 5 and 30 pound loading at 75% r.h.,pig epidermis [4],1.0 mm
same,mm stretch with between 5 and 30 pound loading at 90% r.h.,pig epidermis [4],6.0 mm
"O=C(NCCO)OCCO [Product A, N-(2-hydroxyethyl)-carbamide acid-2-hydroxyethyl ester]",Equilibrium dampness,[1],58 % r.h.
same,"Water Retention, % H2O after drying out at 30% r.h.",pig epidermis [2],25 Δ% H2O
same,"Water Retention, % H2O after drying out at 50% r.h.",pig epidermis [2],26 Δ% H2O
same,"Rehydration, Δ% water absorption at 90% r.h.",pig epidermis [3],62 Δ% H2O
same,mm stretch with between 5 and 30 pound loading at 75% r.h.,pig epidermis [4],1.1 mm
same,mm stretch with between 5 and 30 pound loading at 90% r.h.,pig epidermis [4],5.5 mm
